Structures can show the parent of a compound that is named as a salt.
Key:
[1] = physchem; settings: water
[2] = water solubility of the salts; settings: general statement in the disclosure of the invention
[3] = solubility of the crystalline form compared with the amorphous solid; assay type: physicochemical; settings: crystals formed after storage for two weeks at 50° C
Procedure: (§1) The pamoate salt of EXAMPLE I was stored for two weeks at 50° C, and crystals spontaneously formed. […] Furthermore they were easier to segregate for micronization, and easier to form a suspension with.

[4] = stability of the crystalline form compared with the amorphous solid; assay type: physicochemical; settings: crystals formed after storage for two weeks at 50° C
Procedure: as §1

## CN1C[C@H]2c3ccccc3Oc3ccc(Cl)cc3[C@@H]2C1 (relative stereo) [fumarate]
[1]
  solubility: 1000 µg/mL

## CN1C[C@H]2c3ccccc3Oc3ccc(Cl)cc3[C@@H]2C1 (relative stereo) [pamoate salt]
[2]
  solubility (in words): very insoluble

## CN1C[C@@H]2c3ccccc3Oc3ccc(Cl)cc3[C@H]2C1.O=C(O)c1cc2ccccc2c(Cc2c(O)c(C(=O)O)cc3ccccc23)c1O [crystals]
[3]
  solubility relative to the amorphous yellow solid: less soluble
[4]
  stability relative to the amorphous yellow solid: more stable

## CN1CC2c3ccccc3Oc3ccc(Cl)cc3C2C1.CN1CC2c3ccccc3Oc3ccc(Cl)cc3C2C1.O=C(O)c1cc2ccccc2c(Cc2c(O)c(C(=O)O)cc3ccccc23)c1O [hemipamoate]
[2]
  solubility (in words): very insoluble
